The nature of data set [1]: Cu2+ affinity of ligands used in the PAR competition study. The format is physicochemical. Conditions: 1:1 complex.
Experimental: To obtain a precise binding affinity, a series of ligand competition studies using PAR were conducted. PAR is a chromogenic chelator forming colored complexes with metal ions. Cu^2+ binding affinity for Mek1 was estimated using competition experiments similar to those described in Zimmermann, M. et. al. (2009) Biochemistry 48:11640-11654, with the divalent metal ligand PAR [4-(2-pyridylazo)resorcinol]. The quantitative release of the 1:1 Cu^2+-/PAR complex on titration of apo-Mek1 was monitored spectrophotometrically at 500 nm (DU 600 spectrophotometer, Beckman Coulter, Brea, United States) in 20 mM Tris (pH 7.2)-100 mM NaCl.
Bidentate PAR forms a 1:1 complex with Cu^2+.
Control titrations under the same pH and ionic strength buffer conditions were performed with EDTA and bovine serum albumin (BSA) to validate the Cu^2+-PAR titration study. Both EDTA and BSA are spectrally silent, with known dissociation constants. EDTA also served to calibrate Cu^2+-PAR affinity relative to the reaction condition used for the experiments.
Data set [2] relates to Erk1/2 phosphorylation in Drosophila S2 cells. As to the kind of experiment: Insulin-stimulated Erk1/2 phosphorylation in S2 cells after preincubation with chelator or silver (immunoblot). The format is cell-based. The settings on record: then human insulin 25 μg/mL. The text has this:
The copper transporter Ctr1 was identified as one of approximately 300 genes that when knocked down in S2 insect cells reduced phosphorylation of Erk (see, e.g., Friedman, A. and Perrimon, N. (2006) Nature 444:230-234). To explore whether both Ctr11 and the associated Cu^+ transport function are important for Ras signaling to Erk1/2, Cu^+-specific chelation was used to impose copper deficiency on cultured fly S2 cells, S2 cells used for the no-treatment and insulin-only treatment conditions were left in basal medium (Schneider's medium with 10% fetal bovine serum) during the preincubation. S2 cells used for the other treatment conditions were preincubated for 1 hour with chelator or silver as follows: 10 μM tetrathiomolybdate (TTM) and 250 μM bathocupronine disulfonate (BCS) for copper chelation experiments, 10 μM ferrozine, and 250 μM bathophenanthroline disulfonate (BPS) for iron chelation, and 10 μM silver nitrate. Cells were stimulated with human insulin at a concentration of 25 μg/mL of medium. […] (FIG. 3A). […] (FIG. 3B). […] (FIG. 3C).
In general terms: Immunoblotting shows a protein as a band on a membrane.

Data set [3] concerns the target T1, recombinant GST-tagged human Mek1 (Homo sapiens, UniProt Q02750).
T1 construct: made in house; host or cells: E. coli BL21(DE3)
As to the kind of experiment: Mek1 in vitro kinase assay (phosphorylation of kinase-dead Erk2). The format is biochemical. The method, then: Mek1 requires copper for kinase activity in vitro (FIG. 8 and Turski, M. L. et al. (2012), supra). To determine the role copper plays in the stimulation of Mek1-dependent phosphorylation of Erk1/2, a series of in vitro experiments were carried out. For these experiments, purified human Mek1 protein was incubated with a kinase-dead isoform of hErk2 so that assessment of Erk2 phosphorylation mediated by Mek1 could be made in the absence of Erk2 autophosphorylation. Seger, R. et. al. (1991) Proc. Natl. Acad. Sci. U.S.A. 88:6142-6146.
Human Erk2 and human Mek1 were obtained from Addgene and cloned into pGEX4T3 and pGEX6P1 from GE Life Sciences, respectively. Recombinant GST-human Erk2 (hErk2) and GST-human Mek1 (hMek1) were purified from BL21(DE3) bacteria as previously described. […] The concentration was determined using the Bio-Rad DC protein assay (Bio-Rad, Hercules, United States).
Modified version of Mek1 and Erk2 in vitro kinase assay were performed as described previously. […] Reactions were quenched with 5× Laemmli buffer, and a third of the reaction mixture was analyzed by SDS-PAGE via subsequent Western blotting with phosphospecific antibodies. […] Reactions were quenched with 5× Laemmli buffer, and a third of the reaction mixture was analyzed by SDS-PAGE via Western blotting with phosphospecific antibodies.

The test system of data set [4] is BRaf^V600E-transformed MEFs. As to the kind of experiment: Tumor growth in mice injected with BRaf^V600E-transformed MEFs. The settings on record: 2 mg/day oral TM. The format is in vivo. The text has this:
FIGS. 12A-12C are graphs showing that copper is required for BRaf^V600E-driven tumorigenesis.
Copper is provided primarily through diet. […] Similar copper-reducing strategies may even hold promise as a way to preemptively reduce the incidence of melanoma in high-risk populations. In this regards, there are well-established approaches to regulate the level of copper in humans. Specifically, Wilson's Disease is characterized by a mutation in the copper-transporting gene ATP7B that results in elevated levels of copper in the body (see, e.g., Das, S. K. and Ray, K. (2006) Nat. Clin. Pract. Neurol. 2:482-493). This disease is treated by first lowering copper levels with copper chelators D-penicillamine, trientine or investigative drugs such as ammonium tetrathiomolybdate (TM). Copper levels are then maintained by a copper-restricted diet (e.g., avoidance of copper-rich foods such as shellfish, nuts, chocolate, liver and cooking in copperware) and either zinc acetate, to block copper absorption, or low dose copper chelators (see, e.g., Das, S. K. and Ray, K. (2006), supra). To evaluate if reducing dietary copper could negatively impact melanoma, mice injected with BRaf^V600E-transformed MEFs were either untreated as a control or treated with oral TM to chelate dietary copper.

In data set [5] the test system is Erk1/2 phosphorylation in mouse embryonic fibroblasts (MEFs). As to the kind of experiment: Insulin-stimulated Erk1/2 phosphorylation in Ctr1+/+ and Ctr1−/− MEFs. The format is cell-based. The procedure: Ctr1^+/+ and Ctr1^−/− mouse embryonic fibroblasts (MEFs) and insulin or fibroblast growth factor (FGF) stimulation experiments. To determine whether copper plays a role in the activation of Erk1/2, which is phosphorylated by Mek1, Ctr1^+/+ and Ctr1^−/− mouse embryonic fibroblasts (MEFs) were evaluated for insulin-stimulated ERK1/2 phosphorylation. Isolation and culture of Ctr1^+/+ and Ctr1^−/− cells were done as described in Lee, J. et al. (2002) J. Biol. Chem. 30:322-329. Insulin or fibroblast growth factor (FGF) stimulation experiments were done with plates measuring […], with one plate per time point. Cells were allowed to reach ˜95% confluence and then serum starved for 16 to 48 hours. Recombinant human insulin (Invitrogen, Carlsbad, United States) was added at a final concentration of 200 nM, and recombinant human basic FGF (Invitrogen, Carlsbad, United States) was added at a final concentration of 10 ng/ml, with the exception of the time zero plate. […]

Setting [6] is: S2 cells preincubated 1 hour with 250 μM agent.
[7] abbreviates: S2 cells preincubated 1 hour with 10 μM agent.

T1 sequence (Q02750 whole entry): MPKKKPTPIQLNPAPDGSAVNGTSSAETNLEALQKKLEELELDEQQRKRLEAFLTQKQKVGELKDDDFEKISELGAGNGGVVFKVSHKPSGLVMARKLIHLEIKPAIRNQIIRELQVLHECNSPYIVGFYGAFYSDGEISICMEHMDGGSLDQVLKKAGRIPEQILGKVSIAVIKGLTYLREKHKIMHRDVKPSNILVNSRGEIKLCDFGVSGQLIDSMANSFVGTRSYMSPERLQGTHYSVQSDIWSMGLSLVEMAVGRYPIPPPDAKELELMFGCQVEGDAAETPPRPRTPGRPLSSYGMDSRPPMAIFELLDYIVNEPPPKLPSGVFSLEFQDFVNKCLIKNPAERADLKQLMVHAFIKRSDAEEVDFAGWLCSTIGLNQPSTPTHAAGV

In the case of `Oc1ccc(N=Nc2ccccn2)c(O)c1` [PAR, 4-(2-pyridylazo)resorcinol], the “affinity of Cu2+-PAR complex (formation constant β)” value in data set [1] is given as 3.2×10^17.

As for bathophenanthroline disulfonate [BPS], in data set [2] (setting [6]), the “insulin-stimulated Erk1/2 phosphorylation” value was “did not reduce insulin-stimulated Erk1/2 phosphorylation”.

With `O=[N+]([O-])[O-].[Ag+]` [Ag, silver nitrate], the “insulin-stimulated Erk1/2 phosphorylation” value in data set [2] (setting [7]) is “clearly diminished the levels of insulin-stimulated Erk1/2 phosphorylation”.

Regarding `O=S(=O)([O-])[O-].[Cu+2]` [CuSO4], the “Mek1 kinase activity, times greater” value in data set [3] (2.5 μM CuSO4, 22° C., 30 minutes) is reported as ~20 times.

For `[NH4+].[NH4+].[SH-].[SH-].[S]=[Mo]=[S]` [TM, ammonium tetrathiomolybdate], the “tumor size versus control tumors at termination of the experiment” value in data set [4] is on record as “nearly five times smaller than the control tumors”.

In the case of `[SH-].[SH-].[S]=[Mo]=[S]` [TTM, tetrathiomolybdate, reference compound], the “insulin-stimulated Erk1/2 phosphorylation” value in data set [2] (setting [7]) was “reduced the levels of insulin-stimulated Erk1/2 phosphorylation”. For the same compound, the “Mek1 kinase activity in the presence of 2.5 μM CuSO4” value in data set [3] (50 μM TTM in the presence of CuSO4) is “blunted”.

For the compound `O=S(=O)([O-])c1ccc(-c2nnc(-c3ccccn3)nc2-c2ccc(S(=O)(=O)[O-])cc2)cc1.[Na+].[Na+]` [ferrozine], the “insulin-stimulated Erk1/2 phosphorylation” value in data set [2] (setting [7]) is listed as “did not reduce insulin-stimulated Erk1/2 phosphorylation”.

Consider `Cc1cc(-c2ccc(S(=O)(=O)O)cc2)c2ccc3c(-c4ccc(S(=O)(=O)O)cc4)cc(C)nc3c2n1` [BCS, bathocupronine disulfonate], for which, in data set [2] (setting [6]), the “insulin-stimulated Erk1/2 phosphorylation” value is “reduced the levels of insulin-stimulated Erk1/2 phosphorylation”.

For `[Cu]` [copper], the “insulin-stimulated Erk1/2 phosphorylation” value in data set [5] (Ctr1+/+ cells, copper added) is recorded as “No additional stimulation was observed”; in data set [5] (Ctr1−/− MEFs preincubated with 25 μM copper for 1 hour prior to insulin stimulation), “increased insulin-stimulated Erk1/2 phosphorylation, though not to the same levels as Ctr1^+/+ MEFs”.
